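How tested: cells in 96-well plates exposed to compound for 48 hours at five concentrations. GI50 = concentration required for 50% inhibition of growth.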 The source made the active and inactive calls. No stated cut-off is given here; in the data, active = GI50 up to about 1.1 µM and inactive = higher.
What was measured:
Assay in all cases: inhibition of tumour cell growth, NCI panel, 48 h
UO-31 = system: UO-31
SF-295 = system: SF-295
Hs-578T = system: Hs-578T
NCI-H522 = system: NCI-H522
IGROV-1 = system: IGROV-1
HOP-92 = system: HOP-92
RXF 393 = system: RXF 393
MDA-MB-435 = system: MDA-MB-435
NCI/ADR-RES = system: NCI/ADR-RES
A549 = system: A549
SF-268 = system: SF-268
A498 = system: A498
SW-620 = system: SW-620
MDA-MB-231 = system: MDA-MB-231
OVCAR-5 = system: OVCAR-5
ACHN = system: ACHN
KM12 = system: KM12
COLO 205 = system: COLO 205
SK-MEL-2 = system: SK-MEL-2
DMS-273 = system: DMS-273

Structure (SMILES)	GI50 (UO-31)	GI50 (SF-295)	GI50 (Hs-578T)	GI50 (NCI-H522)	GI50 (IGROV-1)	GI50 (HOP-92)	GI50 (RXF 393)	GI50 (MDA-MB-435)	GI50 (NCI/ADR-RES)	GI50 (A549)	GI50 (SF-268)	GI50 (A498)	GI50 (SW-620)	GI50 (MDA-MB-231)	GI50 (OVCAR-5)	GI50 (ACHN)	GI50 (KM12)	GI50 (COLO 205)	GI50 (SK-MEL-2)	GI50 (DMS-273)
CCOC(=O)Nc1ccc(S(=O)(=O)Nn2cnnc2)cc1	60.1 µM (inactive)	31.5 µM (inactive)	57.9 µM (inactive)	48.1 µM (inactive)	40.7 µM (inactive)	63.7 µM (inactive)	> 100 µM (inactive)	16.4 µM (inactive)	37.1 µM (inactive)	60.4 µM (inactive)	83.2 µM (inactive)	27.2 µM (inactive)	33.3 µM (inactive)	76.6 µM (inactive)	> 100 µM (inactive)	81.3 µM (inactive)	36.2 µM (inactive)	39.9 µM (inactive)	72.6 µM (inactive)	–
CCCCn1cnc2c(c(CC#N)nn2-c2ccccc2)c1=N	60.4 µM (inactive)	30.4 µM (inactive)	39.9 µM (inactive)	43.1 µM (inactive)	68.9 µM (inactive)	52.2 µM (inactive)	70.1 µM (inactive)	32.3 µM (inactive)	41.2 µM (inactive)	83.8 µM (inactive)	71.1 µM (inactive)	24.5 µM (inactive)	41.9 µM (inactive)	43.1 µM (inactive)	> 100 µM (inactive)	66.1 µM (inactive)	43 µM (inactive)	30.7 µM (inactive)	23.7 µM (inactive)	–
CC1=C(Br)C(=O)C(C)=C(Br)C1=O.Cc1c(O)c(Br)c(C)c(O)c1Br	1.85 µM (inactive)	16.3 µM (inactive)	5.92 µM (inactive)	1.99 µM (inactive)	7.83 µM (inactive)	1.78 µM (inactive)	1.88 µM (inactive)	1.89 µM (inactive)	4.31 µM (inactive)	18.3 µM (inactive)	4.17 µM (inactive)	15.3 µM (inactive)	1.97 µM (inactive)	4.4 µM (inactive)	10.8 µM (inactive)	1.68 µM (inactive)	19.4 µM (inactive)	1.98 µM (inactive)	3.53 µM (inactive)	–
COc1c(Cl)c(=O)oc2ccc(Cl)cc12	> 100 µM (inactive)	53.2 µM (inactive)	> 100 µM (inactive)	> 100 µM (inactive)	> 100 µM (inactive)	25.2 µM (inactive)	> 100 µM (inactive)	> 100 µM (inactive)	> 100 µM (inactive)	> 100 µM (inactive)	> 100 µM (inactive)	> 100 µM (inactive)	> 100 µM (inactive)	> 100 µM (inactive)	> 100 µM (inactive)	> 100 µM (inactive)	> 100 µM (inactive)	> 100 µM (inactive)	> 100 µM (inactive)	–
NC1C/C(=N\O)c2c(I)sc(I)c21 (centres undefined)	13 µM (inactive)	17.2 µM (inactive)	19.8 µM (inactive)	1.61 µM (inactive)	15.7 µM (inactive)	17.1 µM (inactive)	21.3 µM (inactive)	13.8 µM (inactive)	18.4 µM (inactive)	16 µM (inactive)	17.7 µM (inactive)	27 µM (inactive)	9.82 µM (inactive)	21.3 µM (inactive)	15.7 µM (inactive)	18.7 µM (inactive)	13.1 µM (inactive)	19.6 µM (inactive)	17.5 µM (inactive)	–
Cn1c(=S)[nH]c2sc3c(c2c1=O)CCSC3	11.7 µM (inactive)	29.9 µM (inactive)	> 100 µM (inactive)	36.9 µM (inactive)	23.9 µM (inactive)	23.9 µM (inactive)	3.05 µM (inactive)	49.1 µM (inactive)	31.3 µM (inactive)	43.1 µM (inactive)	26.2 µM (inactive)	31.6 µM (inactive)	35.7 µM (inactive)	> 100 µM (inactive)	53.7 µM (inactive)	42.9 µM (inactive)	32.1 µM (inactive)	47.1 µM (inactive)	> 100 µM (inactive)	–
C=C(C(=O)OC)N1C(=O)CC(C)C1=O (centres undefined)	13.1 µM (inactive)	29.1 µM (inactive)	24.3 µM (inactive)	1.9 µM (inactive)	15.9 µM (inactive)	1.95 µM (inactive)	9.71 µM (inactive)	16.9 µM (inactive)	15.6 µM (inactive)	20.9 µM (inactive)	16.7 µM (inactive)	20.7 µM (inactive)	9.35 µM (inactive)	17.6 µM (inactive)	15.1 µM (inactive)	2.83 µM (inactive)	20.3 µM (inactive)	4.2 µM (inactive)	16.9 µM (inactive)	–
O=S(=O)(CC#CCS(=O)(=O)c1ccccc1)c1ccccc1	1.42 µM (inactive)	18.5 µM (inactive)	5.14 µM (inactive)	0.659 µM (active)	1.44 µM (inactive)	1.61 µM (inactive)	1.67 µM (inactive)	1.72 µM (inactive)	3.72 µM (inactive)	19.1 µM (inactive)	4.35 µM (inactive)	16.1 µM (inactive)	0.891 µM (active)	11.6 µM (inactive)	4.63 µM (inactive)	1.79 µM (inactive)	12.4 µM (inactive)	1.95 µM (inactive)	5.69 µM (inactive)	–
CCOC(=O)CC(C)C(C#N)(OP1(=O)OC(c2ccccc2)C(C)N1C)c1ccccc1 (centres undefined)	35.4 µM (inactive)	46.9 µM (inactive)	83.6 µM (inactive)	62.5 µM (inactive)	55.2 µM (inactive)	17.8 µM (inactive)	67.5 µM (inactive)	61 µM (inactive)	39.5 µM (inactive)	47 µM (inactive)	> 100 µM (inactive)	65.3 µM (inactive)	54.7 µM (inactive)	59.7 µM (inactive)	> 100 µM (inactive)	44.1 µM (inactive)	45.8 µM (inactive)	18.5 µM (inactive)	34.1 µM (inactive)	–
Cc1cc(=O)nc(S(=O)(=O)NC(=O)Nc2cccc(Cl)c2)[nH]1	3.43 µM (inactive)	16.2 µM (inactive)	> 100 µM (inactive)	> 100 µM (inactive)	> 100 µM (inactive)	6.93 µM (inactive)	> 71.4 µM (inactive)	> 33.5 µM (inactive)	> 100 µM (inactive)	> 100 µM (inactive)	> 100 µM (inactive)	> 100 µM (inactive)	> 100 µM (inactive)	> 68.9 µM (inactive)	> 100 µM (inactive)	> 100 µM (inactive)	14.7 µM (inactive)	> 100 µM (inactive)	> 100 µM (inactive)	–
CC(=O)Nc1ccc2c3c(cc(O)c2c1)N(C(=O)CCCC(=O)N1CC(CCl)c2c1cc(O)c1cc(NC(C)=O)ccc21)CC3CCl (centres undefined)	< 0.0166 µM (active)	< 0.01 µM (active)	0.0285 µM (active)	< 0.01 µM (active)	0.0102 µM (active)	0.0199 µM (active)	< 0.01 µM (active)	< 0.01 µM (active)	0.0828 µM (active)	< 0.01 µM (active)	< 0.01 µM (active)	< 0.01 µM (active)	0.0392 µM (active)	< 0.01 µM (active)	0.0198 µM (active)	< 0.01 µM (active)	0.0132 µM (active)	0.0154 µM (active)	< 0.01 µM (active)	–
Fc1ccc2nc3n(c2c1)C(c1c(F)cccc1F)SC3 (centres undefined)	30.9 µM (inactive)	46 µM (inactive)	> 100 µM (inactive)	28.1 µM (inactive)	> 100 µM (inactive)	46 µM (inactive)	53.7 µM (inactive)	40.5 µM (inactive)	31.6 µM (inactive)	58.3 µM (inactive)	> 100 µM (inactive)	65.5 µM (inactive)	49.5 µM (inactive)	72.6 µM (inactive)	8.69 µM (inactive)	67.9 µM (inactive)	39.4 µM (inactive)	45.2 µM (inactive)	96.8 µM (inactive)	–
CCC/C(Cl)=N\OC(=O)Nc1ccc(F)cc1	17.7 µM (inactive)	> 100 µM (inactive)	41.5 µM (inactive)	1.87 µM (inactive)	17.3 µM (inactive)	4.43 µM (inactive)	18.4 µM (inactive)	16.5 µM (inactive)	21.1 µM (inactive)	52.8 µM (inactive)	26.1 µM (inactive)	16.9 µM (inactive)	7 µM (inactive)	17.9 µM (inactive)	18.7 µM (inactive)	12.3 µM (inactive)	20.6 µM (inactive)	3.16 µM (inactive)	18.2 µM (inactive)	–
C[C@@H]1CC2(C[C@@H](C)C3[C@@H](CC4(C)CCCC5C6=CC(O)(CC[C@]34C)OC6=CC(=O)OC5(C)C)O2)OC1=O (some centres undefined)	> 100 µM (inactive)	–	–	> 100 µM (inactive)	> 100 µM (inactive)	> 100 µM (inactive)	> 100 µM (inactive)	–	–	> 100 µM (inactive)	–	–	> 100 µM (inactive)	–	> 100 µM (inactive)	> 100 µM (inactive)	> 100 µM (inactive)	> 100 µM (inactive)	> 100 µM (inactive)	> 100 µM (inactive)
Cc1cc(=O)oc2cc(O)ccc12 [HYMECROMONE]	> 100 µM (inactive)	> 100 µM (inactive)	> 100 µM (inactive)	> 100 µM (inactive)	> 100 µM (inactive)	79.8 µM (inactive)	> 100 µM (inactive)	> 100 µM (inactive)	> 100 µM (inactive)	> 100 µM (inactive)	> 100 µM (inactive)	65.8 µM (inactive)	> 100 µM (inactive)	> 100 µM (inactive)	> 100 µM (inactive)	> 100 µM (inactive)	> 100 µM (inactive)	> 100 µM (inactive)	> 100 µM (inactive)	–
